Data from patent publication US20040265964A1, “Inducers of recombinant protein expression” (priority 2003, published 2004).

Assays:
Format in all cases: cell-based, Chinese hamster
[1] = test system: fluorescent reporter gene DsRed under the control of an EASE/CMV promoter in CHO cells; assay: DsRed fluorescent reporter induction in CHO cell pools, 96 well format; conditions: for increase in DsRed expression per viable cell relative to control: 96 well, 6 days at 31° C.; for effectiveness as inducers of recombinant polypeptide production: compound screening, conditions not given
Method: FIG. 1 is a graph of the Effect of Combinations of Compounds on Induction of Reporter Gene. Pools of cells that expressed a fluorescent marker protein, DsRed, under the control of an EASE/CMV promoter were cultured in 96 well plates at 35° C. for 6 days in the presence of the indicated amount of compound. The amount of fluorescence is plotted as a function of the concentration of compound. Compounds used for induction were hexanohydroxamic acid (HHA) (diamonds), Hexamethylenebisacetamide (HMBA) (squares) and both HHA+HMBA (triangles).
Using a construct that expressed DsRed under the control of a EASE/CMV promoter, including an adenoviral tripartite leader, as an indicator for expression, various compounds were assayed.
Pools of cells were selected in -GHT medium for presence of the expression vector, and then plated in a 96 well format in serum-free medium. Hydrocinnamic acid was added to test wells at 0.5 millimolar, the temperature decreased from 37° C. to 31° C., and culture continued for 6 days at the reduce temperature. DsRed fluorescence was assayed on a Wallac Victor2 multilabel microplate reader (PerkinElmer Life Sciences, Boston, Mass.).

[2] = test system: CHO cell line that expresses a soluble form of the IL1-receptor type II; assay: IL1RII expression by CHO cell line in shake flasks
Method: The induction capacity of this compound was then tested in a different format on a different recombinant protein. […] Cells were grown in serum-free medium in shake flasks, hydrocinnamic acid was added to a concentration of 0.5 millimolar, and incubation continued at 31° C. for 9 to 10 days.

[3] = test system: CHO cell that expresses a soluble form of a TNF receptor, TNFR:Fc; assay: TNFR:Fc expression by CHO cells in shake flasks; conditions: 7 days at a reduced temperature
Text: Another cell line tested was a CHO cell that expresses a soluble form of a TNF receptor, TNFR:Fc (U.S. Pat. No. 5,605,690, incorporated by reference herein). […]

[4] = test system: CHO cell pools transfected with an expression vector encoding an antibody against the IL4 receptor; assay: Antibody expression by unamplified CHO cell pools, 96 well plates; conditions: for increase in antibody expression relative to control: 0.5 mM inducer (per example heading), average over experiments; for increase in antibody expression relative to control / increase in antibody expression relative to control, compound used individually: 4 days at 37° C.; for increase in antibody expression relative to control, compound used individually: single compound (HHA 10 micromolar, 3-phenylpropionohydroxamic acid 10 micromolar, HMBA 1 millimolar as in the combinations)
Method: In addition, CHO cell pools transfected with an expression vector encoding an antibody against the IL4 receptor were tested (see U.S. Pat. No. 5,717,072, incorporated by reference herein). Unamplified pools were plated in serum-free medium in 96 well plates and incubated with inducer for 4 days at 37° C.

[5] = test system: fluorescent reporter gene DsRed under the control of an EASE/CMV promoter in CHO cells; assay: DsRed fluorescent reporter induction in CHO cell pools, 96 well format; conditions: 6 days at 31° C.
[6] = 0.5 mM compound, average over experiments
[7] = 0.5 millimolar compound, serum-free medium, 31° C. for 9 to 10 days
[8] = 0.5 mM compound, serum-free medium

In the case of `O=C(O)CCCCc1ccccc1` [5-phenylvaleric acid], the “increase in DsRed expression per viable cell relative to control” value [1, 6] is reported as 40%, the “increase in IL1RII expression relative to control” value [2, 7] is reported as 44% and the “increase in TNFR:Fc expression relative to control cells” value [3, 8] is reported as 33%. For the same compound, the “increase in antibody expression on day 3” value ([4]; 0.5 mM 5-phenylvaleric acid, 37° C., day 3) was “no increase” and the “increase in antibody expression relative to control” value [4] was 40%.
In the case of `CCCCCC(=O)NO` [HHA, hexanohydroxamic acid], the “increase in IL1RII expression relative to control” value ([2]; 10 micromolar HHA, 31° C. for 9 days) is reported as 19%, the “increase in TNFR:Fc expression relative to control cells” value ([3]; 10 micromolar HHA) is reported as 19% and the “increase in TNFR:Fc expression relative to control cells” value ([3]; 20 micromolar HHA) is reported as 11%. The “increase in antibody expression relative to control, compound used individually” value [4] was “did not have a significant increase” and the “increase in DsRed expression relative to the control” value ([5]; 10 micromolar HHA alone) was 48%.
`O=C(O)CCc1ccccc1` [hydrocinnamic acid] was tested, and the “increase in DsRed expression per viable cell relative to control” value [1, 6] was 60%, the “increase in IL1RII expression relative to control” value [2, 7] was 22% and the “increase in TNFR:Fc expression relative to control cells” value [3, 8] was 20%. For the same compound, the “increase in antibody expression relative to control” value [4] was 5%.
`CC(=O)NCCCCCCNC(C)=O` [HMBA, hexamethylene bisacetamide, reference compound] was tested, and the “increase in TNFR:Fc expression relative to control cells” value ([3]; 1.0 millimolar HMBA alone) was 14%, the “increase in antibody expression relative to control, compound used individually” value [4] was “not a significant increase” and the “increase in DsRed expression relative to the control” value ([5]; 1 millimolar HMBA alone) was 20%.
In the case of `O=C(O)CCCc1ccccc1` [4-phenylbutyric acid], the “increase in DsRed expression per viable cell relative to control” value [1, 6] is reported as 60% and the “increase in IL1RII expression relative to control” value [2, 7] is reported as 21%.
For `O=C(O)CCCCCC(=O)O` [pimelic acid, reference compound], the “effectiveness as inducers of recombinant polypeptide production” value (shortened to “effectiveness as inducers”) [1] was “ineffective”.
For `O=C(CCc1ccccc1)NO` [3-phenylpropionohydroxamic acid], the “increase in antibody expression relative to control, compound used individually” value [4] was “not a significant increase”.
`CCCCNC(C)=O` [N-butylacetamide] was tested, and the “increase in DsRed expression per viable cell relative to control” value ([1]; 1.0 millimolar compound, average of 2 experiments) was 77%.
With `CC(CC(=O)O)C(=O)O` (centres unmarked) [methylsuccinic acid, reference compound] the “effectiveness as inducers” value [1] was “ineffective”.
For `O=C(O)CC(O)(CC(=O)O)C(=O)[O-].[Na+]` [sodium dihydrogen citrate, reference compound], the “effectiveness as inducers” value [1] was “ineffective”.
In the case of `Cc1ccc(CCC(=O)O)cc1` [3-(4-methylphenyl)propionic acid], the “increase in DsRed expression per viable cell relative to control” value [1, 6] is reported as 70% and the “increase in IL1RII expression relative to control” value [2, 7] is reported as 15%.
